Test results: publication PMC3602417 (MedChemComm, 2013)
Read-outs that look alike come from different tables or passages of the source. Each block holds one compound with its values, some of them ahead of it.

Legend:
water solubility = assay type: physicochemical
rats [1] = conditions: cited from earlier work
nAChRs = conditions: cited from earlier work
rats [2] = conditions: cited from earlier work; remark: listed apart in the source
VMAT2 [3] = biological target: T1, VMAT2 (Rattus norvegicus, UniProt Q01827); test: [3H]DTBZ binding to rat synaptic vesicle membranes
VMAT2 [4] = biological target: T1, VMAT2; test: inhibition of [3H]DA uptake into rat striatal synaptic vesicles; assay type: biochemical
VMAT2 [5] = biological target: T1, VMAT2; conditions: read-out: [3H]DTBZ Ki ± SEM; Table 1; rat synaptic vesicle membranes; ref 12b; cited from earlier work
[6] = cited from earlier work
rats [7] = conditions: cited from earlier work; remark: listed apart in the source
METH-evoked DA release = conditions: cited from earlier work
rats [8] = test: METH self-administration; assay type: in vivo, rat; conditions: preliminary data
VMAT2 [9] = biological target: T1, VMAT2; conditions: cited from earlier work
rats [10] = conditions: cited from earlier work; remark: listed apart in the source

T1 sequence (Q01827 whole entry): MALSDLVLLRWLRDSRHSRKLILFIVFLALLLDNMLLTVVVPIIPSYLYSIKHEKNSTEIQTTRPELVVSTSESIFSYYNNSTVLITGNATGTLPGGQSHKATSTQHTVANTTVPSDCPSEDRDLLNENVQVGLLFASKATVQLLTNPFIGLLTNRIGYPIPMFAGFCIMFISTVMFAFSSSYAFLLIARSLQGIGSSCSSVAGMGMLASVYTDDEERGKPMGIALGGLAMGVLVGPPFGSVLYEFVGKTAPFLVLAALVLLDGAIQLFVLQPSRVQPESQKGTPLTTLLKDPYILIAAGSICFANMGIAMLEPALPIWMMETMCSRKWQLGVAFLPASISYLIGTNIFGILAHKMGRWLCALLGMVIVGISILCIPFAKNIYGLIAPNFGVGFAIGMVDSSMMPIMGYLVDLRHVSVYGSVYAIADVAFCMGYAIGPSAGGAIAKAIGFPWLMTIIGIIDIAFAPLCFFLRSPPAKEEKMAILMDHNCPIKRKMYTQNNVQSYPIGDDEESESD

Structure (SMILES): CN1[C@@H](CCc2ccccc2)CCC[C@H]1CCc1ccccc1 [Compound 2, lobelane, reference compound]
- water solubility (water solubility): low water solubility
- effect on food-maintained responding (rats [1]): without altering food-maintained responding
- activity at nAChRs (nAChRs; compared to lobeline): negligible activity
- effect on METH self-administration (SA) (rats [2]; rats): dose-dependently decreases METH self-administration

- affinity at the [3H]DTBZ binding site (VMAT2 [3]): no affinity
- potency inhibiting [3H]DA uptake at VMAT2 relative to lobelane (VMAT2 [4]): equipotent to lobelane
Structure (SMILES): CN(C)N1[C@@H](CCc2ccccc2)CCC[C@H]1CCc1ccccc1 [Compound 13]

Structure (SMILES): CCN1[C@@H](CCc2ccccc2)CCC[C@H]1CCc1ccccc1 [Compound 4]
- Ki (VMAT2 [5]): 3.41 ± 0.67 µM

Structure (SMILES): COc1ccc(CC[C@H]2CCC[C@@H](CCc3ccc(OC)cc3)N2C[C@@H](O)CO)cc1 [Compound 19a]
- CPP produced by the compound (abuse liability) [6]: does not produce CPP
- self-administration of the compound (abuse liability) [6]: not self-administered
- effect on food-maintained responding (rats [1]): without altering food-maintained responding
- effect on METH CPP (rats [7]): effectively decreases
- effect on METH-evoked DA release (METH-evoked DA release; vesicles and striatal slices): decreasing METH-evoked DA release from vesicles and striatal slices without intrinsic activity
- duration of action to inhibit METH SA within a behavioral session (rats [2]; compared to lobeline and lobelane): significantly increased duration of action
- effect on METH SA (rats [2]; rats): effectively decreases
- tolerance to decrease of METH SA and CPP after repeated dosing (rats [2]; repeated dosing): not observed

Structure (SMILES): OC[C@H](O)CN1[C@@H](CCc2ccccc2)CCC[C@H]1CCc1ccccc1 [Compound 14a]
- effect on METH SA, preliminary in vivo screens (rats [8]): decrease in METH SA in rats

Structure (SMILES): c1ccc(CC[C@H]2CCC[C@@H](CCc3ccccc3)N2)cc1 [Compound 3, nor-lobelane]
- potency for VMAT2 binding and inhibition relative to lobelane (VMAT2 [9]): equal potency to lobelane

Structure (SMILES): CN1[C@@H](CC(=O)c2ccccc2)CCC[C@H]1C[C@H](O)c1ccccc1 [Compound 1, (−)-lobeline]
- effect on METH-evoked DA release (METH-evoked DA release; rat striatal slices): inhibits METH-evoked DA release from rat striatal slices
- effect on METH-induced behavioral effects (rats [10]): attenuates METH-induced behavioral effects
- affinity at nAChR α4β2* subtype (nAChRs; α4β2* subtype): high affinity

Structure (SMILES): CCCN1[C@@H](CCc2ccccc2)CCC[C@H]1CCc1ccccc1 [Compound 5]
- Ki (VMAT2 [5]): 1.87 ± 0.25 µM

- fold lower potency in inhibiting [3H]DA uptake at VMAT2 compared to lobelane (VMAT2 [4]; relative to lobelane): 100 fold
Structure (SMILES): N#CCN1[C@@H](CCc2ccccc2)CCC[C@H]1CCc1ccccc1 [Compound 8]
